Reference: PubChem BioAssay (NCI)
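Cells were grown in 96-well plates and exposed to each compound for 48 hours at five concentrations; endpoints were interpolated linearly between bracketing concentrations, or set to the highest concentration if not reached. TGI: concentration producing complete growth inhibition.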

Assays:
Assay in all cases: inhibition of tumour cell growth, NCI panel, 48 h
[1] = test system: OVCAR-5 ovarian
[2] = test system: K-562 leukemia
[3] = test system: MALME-3M melanoma
[4] = test system: NCI-H23 lung
[5] = test system: SF-268 CNS
[6] = test system: MDA-MB-231 breast
[7] = test system: SK-MEL-28 melanoma
[8] = test system: OVCAR-3 ovarian
[9] = test system: HL-60(TB) leukemia
[10] = test system: PC-3 prostate
[11] = test system: HCT-116 colon
[12] = test system: HT29 colon
[13] = test system: HCT-15 colon
[14] = test system: RPMI-8226 leukemia
[15] = test system: NCI-H226 lung
[16] = test system: RXF 393 renal
[17] = test system: MDA-N
[18] = test system: KM12 colon
[19] = test system: A498 renal
[20] = test system: T-47D breast
[21] = test system: MCF7 breast
[22] = test system: UACC-62 melanoma
[23] = test system: SF-539 CNS
[24] = test system: NCI-H460 lung
[25] = test system: SR leukemia
[26] = test system: A549 NSCLC
[27] = test system: IGROV1 ovarian
[28] = test system: EKVX NSCLC
[29] = test system: HS 578T breast
[30] = test system: M14 melanoma
[31] = test system: SK-MEL-5 melanoma
[32] = test system: SW-620 colon
[33] = test system: UACC-257 melanoma
[34] = test system: U251 CNS
[35] = test system: HCC-2998 colon
[36] = test system: NCI-H522 lung
[37] = test system: OVCAR-8 ovarian
[38] = test system: NCI/ADR-RES ovarian
[39] = test system: TK-10 renal
[40] = test system: CCRF-CEM leukemia
[41] = test system: HOP-62 NSCLC
[42] = test system: SNB-19 CNS
[43] = test system: DU-145 prostate
[44] = test system: UO-31 renal
[45] = test system: COLO 205 colon
[46] = test system: MOLT-4 leukemia
[47] = test system: BT-549 breast
[48] = test system: SK-OV-3 ovarian
[49] = test system: 786-0 renal
[50] = test system: SF-295 CNS
[51] = test system: LOX IMVI melanoma
[52] = test system: ACHN renal
[53] = test system: SK-MEL-2 melanoma
[54] = test system: SN12C renal
[55] = test system: MDA-MB-435
[56] = test system: HOP-92 NSCLC
[57] = test system: CAKI-1 renal
[58] = test system: OVCAR-4 ovarian
[59] = test system: SNB-75 CNS

## CC(C)/C(Cl)=N\OC(=O)Nc1ccc(F)cc1
[1]
  TGI: 30.4 µM
[2]
  TGI: 3.45 µM
[3]
  TGI: 3.91 µM
[4]
  TGI: 38.4 µM
[5]
  TGI: 56.1 µM
[6]
  TGI: 5.17 µM
[7]
  TGI: 11.5 µM
[8]
  TGI: 21.6 µM
[9]
  TGI: 3.72 µM
[10]
  TGI: 31.4 µM
[11]
  TGI: 22.6 µM
[12]
  TGI: 4.6 µM
[13]
  TGI: 12.9 µM
[14]
  TGI: 4.19 µM
[15]
  TGI: 36.9 µM
[16]
  TGI: 29.9 µM
[17]
  TGI: 23.2 µM
[18]
  TGI: 35.7 µM
[19]
  TGI: 28.5 µM
[20]
  TGI: 24.1 µM
[21]
  TGI: 14.3 µM
[22]
  TGI: 40 µM
[23]
  TGI: 32.8 µM
[24]
  TGI: 36.1 µM
[25]
  TGI: 4.33 µM
[26]
  TGI: 35.9 µM
[27]
  TGI: 31.7 µM
[28]
  TGI: 11.3 µM
[29]
  TGI: 71.9 µM
[30]
  TGI: 16.1 µM
[31]
  TGI: 26.4 µM
[32]
  TGI: 3.23 µM
[33]
  TGI: 28.3 µM
[34]
  TGI: 29 µM
[35]
  TGI: 32 µM
[36]
  TGI: 3.02 µM
[37]
  TGI: 25.6 µM
[38]
  TGI: > 48.5 µM
[39]
  TGI: 9.06 µM
[40]
  TGI: 3.62 µM
[41]
  TGI: 33.4 µM
[42]
  TGI: 39.3 µM
[43]
  TGI: 30.7 µM
[44]
  TGI: 10.5 µM
[45]
  TGI: 4.42 µM
[46]
  TGI: 4.2 µM
[47]
  TGI: 24.2 µM
[48]
  TGI: 31.7 µM
[49]
  TGI: 9.55 µM
[50]
  TGI: 27.8 µM
[51]
  TGI: 5.73 µM
[52]
  TGI: 7.7 µM
[53]
  TGI: 32.8 µM
[54]
  TGI: 16.7 µM

## COc1cc(/C=C2/SC(c3ccccc3)N(c3cccc(NC(C)=O)c3)C2=O)cc(OC)c1OC (stereo not drawn)
[1]
  TGI: > 100 µM
[2]
  TGI: > 100 µM
[3]
  TGI: > 100 µM
[4]
  TGI: > 100 µM
[55]
  TGI: > 100 µM
[5]
  TGI: > 100 µM
[56]
  TGI: > 100 µM
[7]
  TGI: > 100 µM
[8]
  TGI: > 100 µM
[9]
  TGI: > 100 µM
[11]
  TGI: > 100 µM
[12]
  TGI: > 100 µM
[13]
  TGI: > 100 µM
[14]
  TGI: > 100 µM
[15]
  TGI: > 100 µM
[16]
  TGI: > 100 µM
[17]
  TGI: > 100 µM
[18]
  TGI: > 100 µM
[19]
  TGI: > 100 µM
[20]
  TGI: > 100 µM
[21]
  TGI: > 100 µM
[22]
  TGI: > 100 µM
[23]
  TGI: > 100 µM
[24]
  TGI: > 100 µM
[25]
  TGI: > 100 µM
[26]
  TGI: > 100 µM
[28]
  TGI: > 100 µM
[29]
  TGI: > 100 µM
[30]
  TGI: > 100 µM
[31]
  TGI: > 100 µM
[57]
  TGI: > 100 µM
[32]
  TGI: > 100 µM
[33]
  TGI: > 100 µM
[35]
  TGI: > 100 µM
[36]
  TGI: 73.6 µM
[37]
  TGI: > 100 µM
[38]
  TGI: > 100 µM
[39]
  TGI: > 100 µM
[41]
  TGI: > 100 µM
[42]
  TGI: > 100 µM
[43]
  TGI: > 100 µM
[44]
  TGI: > 100 µM
[45]
  TGI: > 100 µM
[46]
  TGI: > 100 µM
[47]
  TGI: > 100 µM
[48]
  TGI: > 100 µM
[49]
  TGI: > 100 µM
[50]
  TGI: > 100 µM
[58]
  TGI: > 100 µM
[51]
  TGI: > 100 µM
[52]
  TGI: > 100 µM
[54]
  TGI: > 100 µM

## Cc1c(S(=O)(=O)/N=C(\NN)Nc2ccc(Cl)cc2)sc2ccc(Cl)cc12
[1]
  TGI: 27.9 µM
[2]
  TGI: > 100 µM
[3]
  TGI: 39.1 µM
[4]
  TGI: 35.6 µM
[5]
  TGI: 33.8 µM
[6]
  TGI: 32 µM
[56]
  TGI: 31.4 µM
[7]
  TGI: 44.1 µM
[8]
  TGI: 32 µM
[9]
  TGI: 90.8 µM
[10]
  TGI: 29 µM
[11]
  TGI: 26.4 µM
[12]
  TGI: 30.7 µM
[13]
  TGI: 34.4 µM
[14]
  TGI: > 100 µM
[15]
  TGI: 41.6 µM
[16]
  TGI: 23.6 µM
[17]
  TGI: 29.1 µM
[18]
  TGI: 30 µM
[19]
  TGI: 29.5 µM
[20]
  TGI: 24 µM
[21]
  TGI: 30.2 µM
[22]
  TGI: 27.6 µM
[23]
  TGI: 31.5 µM
[24]
  TGI: 34.8 µM
[25]
  TGI: 65.1 µM
[26]
  TGI: 31.6 µM
[27]
  TGI: 30.4 µM
[28]
  TGI: 27.2 µM
[29]
  TGI: 59.1 µM
[30]
  TGI: 34.8 µM
[31]
  TGI: 33.4 µM
[57]
  TGI: 34.4 µM
[32]
  TGI: 71.2 µM
[33]
  TGI: 33.8 µM
[34]
  TGI: 30.4 µM
[36]
  TGI: 32.5 µM
[37]
  TGI: 34.7 µM
[38]
  TGI: 40.8 µM
[39]
  TGI: 31.8 µM
[40]
  TGI: > 100 µM
[59]
  TGI: 28.4 µM
[41]
  TGI: 36.3 µM
[42]
  TGI: 38 µM
[43]
  TGI: 30.9 µM
[44]
  TGI: 33.1 µM
[45]
  TGI: 33.4 µM
[46]
  TGI: 59.8 µM
[47]
  TGI: 30.9 µM
[48]
  TGI: 35.9 µM
[49]
  TGI: 31.5 µM
[50]
  TGI: 33.6 µM
[58]
  TGI: 30.1 µM
[51]
  TGI: 35.1 µM
[52]
  TGI: 30 µM
[53]
  TGI: 30.5 µM
[54]
  TGI: 30.9 µM
